{"source": "patent US6491950B1", "about": "“Controlled release pharmaceutical composition” (Kos Pharmaceuticals, Inc., priority 2000, dated 2002)", "assay": "In vitro dissolution procedure, USP Basket Method (Apparatus I)", "assay_type": "physicochemical", "settings": "24 hours; for release of medicament, dependence on type of medicament: Example 6, FIG. 6, 20% medicament, Methocel E10 P 3%, polysorbate 80 1%; for release of medicament, dependence on amount of surfactant: Example 7, FIG. 7, polysorbate 80 2.5, 5.0, 10.0%; for release of medicament, dependence on amount of high melting glyceride: Example 1, FIG. 1, Compritol 888 15-30%, hydrochloride", "description": "The dissolution release of the formulations was determined by the USP Basket Method (Apparatus I). By this method, samples are tested in a 40 mesh basket rotating at 100 RPM. Release media were used in a volume of 900 ml per dissolution vessel, maintained at 37° C. Double distilled deionized water was generally used as the dissolution media. Some formulations were also evaluated in simulated gastric fluid (0.1N hydrochloric acid, pH=1.2, no enzyme added) or simulated intestinal fluid (0.05 M phosphate buffer, pH=7.4, no enzyme added). Nine samples of 3.0 ml each were automatically collected at 2, 4, 6, […], 12, 14, 20 and 24 hours. The absorbency of the samples were measured at the peak wavelength in the ultraviolet spectrum with Hewliet Packard model 8453 spectrophotometer. The absorbency values were converted to percentages of added medicament that was released.", "note": "Entries after “also recorded” stand apart in the source; their conditions may differ. Counter-ions that a name gives are not always drawn."}
{"smiles": "Cn1c(=O)c2c(ncn2C)n(C)c1=O", "note": "[caffeine]", "values": [{"measurement": "release of medicament, dependence on cellulosic polymer", "setting": "Example 9, FIG. 9, caffeine 20%, Methocel E10 P, Methocel K100M, Ethocel P20 or no polymer, olive oil", "value": "faster when the formulation contains Methocel K100M than Ethocel P20; also recorded: sustained over a 24 hour period"}]}
{"smiles": "COCCc1ccc(OCC(O)CNC(C)C)cc1", "note": "(stereo not shown) [metoprolol tartrate]", "values": [{"measurement": "release of medicament, dependence on type of medicament", "setting": "Compritol 888 25%, soybean oil", "value": "released faster than niacin or caffeine"}, {"measurement": "release of medicament, low hydroxypropyl ether celluloses", "setting": "Example 11, FIG. 11, metoprolol tartrate 20%, LH 11, LH 22 or LH 30 3%, olive oil", "value": "sustained over a 24 hour period; also recorded: essentially the same for each cellulosic polymer of the formulation"}, {"measurement": "release of medicament, dependence on amount of Compritol 888", "setting": "Example 12, FIG. 12, metoprolol tartrate 20%, Compritol 888 15-35%, olive oil", "value": "sustained over 24 hours; also recorded: higher at the higher amounts of compritol"}]}
{"smiles": "O=C(O)c1cccnc1", "note": "[niacin]", "values": [{"measurement": "release of medicament, dependence on amount of surfactant", "setting": "niacin 20%, olive oil", "value": "faster the higher the level of the surfactant above a level of about 5.0% of the total amount of the formulation"}, {"measurement": "release of medicament, dependence on amount of surfactant", "setting": "niacin 20%, olive oil, listed as Niacin", "value": "sustained over 24 hours"}, {"measurement": "release of medicament, with or without cellulosic polymer", "setting": "Example 8, FIG. 8, niacin 20%, Methocel E10 P 3% or none, olive oil", "value": "released faster from a formulation containing Methocel E10P than from a formulation devoid of the cellulosic polymer"}]}
{"smiles": "OCCOCCN1CCN(C(c2ccccc2)c2ccc(Cl)cc2)CC1", "note": "(stereo not shown) [hydroxyzine hydrochloride]", "values": [{"measurement": "release of medicament, dependence on amount of high melting glyceride", "setting": "hydroxyzine HCl 20%, soybean oil", "value": "moderately faster as the amount of higher fatty acid ester in the formulation is increased over a small range and then levels off"}, {"measurement": "release of medicament, dependence on amount of high melting glyceride", "setting": "hydroxyzine HCl 20%, soybean oil, listed as hydroxyzine HCl", "value": "consistent sustained release over 24 hours"}, {"measurement": "release of medicament, dependence on type of oil", "setting": "Example 2, FIG. 2, hydroxyzine HCl 20%, Compritol 888 25%, oil 51%", "value": "sustained at the same level over the period"}, {"measurement": "release of medicament, dependence on type of high melting glyceride", "setting": "Example 3, FIG. 3, hydroxyzine HCl 20%, glyceride 25%, soybean oil", "value": "fastest with Precirol AT05 slowest with Compritol 888/WL 2155, and intermediate with Compritol 888"}, {"measurement": "release of medicament, dependence on type of cellulosic polymer", "setting": "Example 4, FIG. 4, hydroxyzine HCl 20%, polymer 3% (Methocel E10 P, K15M, A4M, Ethocel P20)", "value": "released considerably faster from a formulation of Methocel K15M than Ethocel P20"}, {"measurement": "release of medicament, dependence on type of medicament", "setting": "Compritol 888 25%, soybean oil", "value": "released faster than niacin or caffeine"}]}
